For five molecules, IC50 results are on record in BindingDB's records for doi:10.1021/jm070849r (Pfizer, 2008).

As a reminder, the IC50 is the concentration needed to halve the response being measured.

The target in the first test is T1, 3-hydroxy-3-methylglutaryl-coenzyme A reductase (Rattus norvegicus, UniProt P51639).
T1 sequence (P51639 whole entry): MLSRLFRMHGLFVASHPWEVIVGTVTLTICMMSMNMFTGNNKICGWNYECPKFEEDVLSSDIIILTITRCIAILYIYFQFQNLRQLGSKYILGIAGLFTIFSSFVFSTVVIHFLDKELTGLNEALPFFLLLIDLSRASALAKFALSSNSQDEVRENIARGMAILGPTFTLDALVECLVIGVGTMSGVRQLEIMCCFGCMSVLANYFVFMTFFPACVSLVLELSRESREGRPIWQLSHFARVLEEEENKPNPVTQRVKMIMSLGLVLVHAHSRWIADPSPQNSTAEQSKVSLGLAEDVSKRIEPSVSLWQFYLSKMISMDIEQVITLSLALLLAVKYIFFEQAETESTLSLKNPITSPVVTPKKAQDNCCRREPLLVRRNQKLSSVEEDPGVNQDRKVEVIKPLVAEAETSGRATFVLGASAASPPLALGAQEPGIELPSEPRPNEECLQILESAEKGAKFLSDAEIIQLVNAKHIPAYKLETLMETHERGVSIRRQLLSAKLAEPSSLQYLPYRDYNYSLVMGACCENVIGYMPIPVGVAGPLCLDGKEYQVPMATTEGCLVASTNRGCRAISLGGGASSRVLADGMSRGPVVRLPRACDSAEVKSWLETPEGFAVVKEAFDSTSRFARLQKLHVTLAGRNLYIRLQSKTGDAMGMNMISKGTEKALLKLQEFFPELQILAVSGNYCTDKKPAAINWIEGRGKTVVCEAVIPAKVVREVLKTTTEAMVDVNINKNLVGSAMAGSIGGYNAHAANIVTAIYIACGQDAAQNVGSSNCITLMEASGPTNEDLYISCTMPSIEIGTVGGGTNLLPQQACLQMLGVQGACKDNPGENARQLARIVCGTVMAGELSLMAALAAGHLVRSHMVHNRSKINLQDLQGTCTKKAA
The experiment in a line: HMG-CoA Reductase Enzyme Assay and Inhibition of Cellular Cholesterol Synthesis Assay. Particulars: pH 7.2; 37 °C. As for the experimental part: Enzyme Assay for HMG-CoA reductase was based on the conversion of isotopically labeled HMG-CoA to mevalonic acid using rat liver microsomes as enzyme source. The product, [14C]-mevalonic acid was lactonized and separated from excess substrate via an anion ion exchange resin column, and radioactivity was counted on a scintillation counter. The IC50 values were calculated with GraphPad software (Prism). The cellular assay EC50/IC50 values were obtained from inhibition of cholesterol synthesis in rat hepatocyte.
Regarding `Cc1ccccc1CN(C)C(=O)c1nn(-c2ccc(F)cc2)c(CC[C@@H](O)C[C@@H](O)CC(=O)O)c1C(C)C` [sodium (3R,5R)-7-[1-(4-fluorophenyl)-3-{methyl[(2-methylphenyl)methyl]carbamoyl}-4-(propan-2-yl)-1H-pyrazol-5-yl]-3,5-dihydroxyheptanoate], the IC50 worked out at 2.1 nM.
On the same count and under the same terms, the figure for `Cc1cccc(CN(C)C(=O)c2nn(-c3ccc(F)cc3)c(CC[C@@H](O)C[C@@H](O)CC(=O)O)c2C(C)C)c1` [sodium (3R,5R)-7-[1-(4-fluorophenyl)-3-{methyl[(3-methylphenyl)methyl]carbamoyl}-4-(propan-2-yl)-1H-pyrazol-5-yl]-3,5-dihydroxyheptanoate] is 0.6 nM; for `CC(C)c1c(C(=O)N(C)Cc2ccc(F)cc2)nn(-c2ccc(F)cc2)c1CC[C@@H](O)C[C@@H](O)CC(=O)O` [sodium (3R,5R)-7-[1-(4-fluorophenyl)-3-{[(4-fluorophenyl)methyl](methyl)carbamoyl}-4-(propan-2-yl)-1H-pyrazol-5-yl]-3,5-dihydroxyheptanoate] it is 0.5 nM; for `CC(C)c1c(C(=O)N(Cc2ccccc2)C(C)C)nn(-c2ccc(F)cc2)c1CC[C@@H](O)C[C@@H](O)CC(=O)O` [sodium (3R,5R)-7-{3-[benzyl(propan-2-yl)carbamoyl]-1-(4-fluorophenyl)-4-(propan-2-yl)-1H-pyrazol-5-yl}-3,5-dihydroxyheptanoate] it is 10 nM.
Consider `CC(C)c1c(C(=O)N2CCCC2c2ccccc2)nn(-c2ccc(F)cc2)c1CC[C@@H](O)C[C@@H](O)CC(=O)O` (stereo partly drawn) [sodium (3R,5R)-7-[1-(4-fluorophenyl)-3-[(2-phenylpyrrolidin-1-yl)carbonyl]-4-(propan-2-yl)-1H-pyrazol-5-yl]-3,5-dihydroxyheptanoate], for which the IC50 is 4 nM.

Still in this test, the particulars now being: pH 7.2; 37 °C; read-out: IC50.
For `Cc1ccccc1CN(C)C(=O)c1nn(-c2ccc(F)cc2)c(CC[C@@H](O)C[C@@H](O)CC(=O)O)c1C(C)C` [sodium (3R,5R)-7-[1-(4-fluorophenyl)-3-{methyl[(2-methylphenyl)methyl]carbamoyl}-4-(propan-2-yl)-1H-pyrazol-5-yl]-3,5-dihydroxyheptanoate], the IC50 came out at 16 nM.
